Measured values: patent US20240294541A1, “COMPOUNDS CONSTITUTING C20-MODIFIED SALINOMYCIN DERIVATIVES, A METHOD FOR OBTAINING THE SAME, A COMPOSITION CONTAINING THE SAME AND A USE OF SAID COMPOUNDS” (FILECLO SPOLKA Z OGRANICZONA ODPOWIEDZIALNOSCIA, priority 2021, published 2024)
pIC50: −log10 of the molar value. Like-named read-outs stand apart in the source and are kept apart here.

How the values were obtained:
Assay type in all cases: cell-based
[1] = tested on: NCI-H23 (human lung cancer); test: In vitro cytotoxicity, SRB assay, NCI-H23; details: for pIC50: NCI-H23, 72 h with compound, SRB, n/a = non-active compound, read-out: NCI-H23 IC50; for NCI-H23 SI: selectivity coefficient vs normal BALB/3T3 cells
[2] = tested on: PFSK-1 (malignant primitive neuroectodermal tumour); test: In vitro cytotoxicity, SRB assay, PFSK-1; details: for pIC50: PFSK-1, 72 h with compound, SRB, n/a = non-active compound, read-out: PFSK-1 IC50; for PFSK-1 SI: selectivity coefficient vs normal BALB/3T3 cells
[3] = tested on: A2780 (human ovarian cancer); test: In vitro cytotoxicity, SRB assay, A2780; details: for pIC50: A2780, 72 h with compound, SRB, n/a = non-active compound, read-out: A2780 IC50; for A2780 SI: selectivity coefficient vs normal BALB/3T3 cells
[4] = tested on: A2780Cis (cisplatin-resistant human ovarian cancer); test: In vitro cytotoxicity, SRB assay, A2780Cis; details: for IC50: Homo sapiens, A2780cis
A375 (human melanoma) = test: In vitro cytotoxicity, SRB assay, A375; details: for pIC50: A-375, 72 h with compound, SRB, n/a = non-active compound, read-out: A375 IC50; for A375 SI: selectivity coefficient vs normal BALB/3T3 cells
Hs294T (human melanoma) = test: cells; details: for pIC50: Homo sapiens, Hs 294T, 72 h with compound, SRB, n/a = non-active compound, read-out: Hs294T IC50; for Hs294T SI: selectivity coefficient vs normal BALB/3T3 cells
[5] = tested on: PLC/PRF/5 (human liver cancer); test: cells; details: for pIC50: Homo sapiens, PLC-PRF-5, 72 h with compound, SRB, n/a = non-active compound, read-out: PLC/PRF/5 IC50; for PLC/PRF/5 SI: selectivity coefficient vs normal BALB/3T3 cells
[6] = tested on: SNU-16 (human gastric cancer); test: cells; details: for pIC50: Homo sapiens, SNU-16, 72 h with compound, MTT, n/a = non-active compound, read-out: SNU-16 IC50; for SNU-16 SI: selectivity coefficient vs normal BALB/3T3 cells
[7] = tested on: KG-1 (human acute myeloid leukaemia); test: In vitro cytotoxicity, MTT assay, KG-1; details: for pIC50: Homo sapiens, 72 h with compound, MTT, n/a = non-active compound; for KG-1 SI: selectivity coefficient vs normal BALB/3T3 cells
[8] = tested on: MIA PaCa-2 (human pancreatic cancer); test: cells; details: for pIC50: Homo sapiens, MIA PaCa-2, 72 h with compound, SRB, n/a = non-active compound, read-out: MIA PaCa-2 IC50; for MIA PaCa-2 SI: selectivity coefficient vs normal BALB/3T3 cells
[9] = tested on: BALB/3T3 (normal mouse fibroblasts); test: In vitro cytotoxicity, SRB assay, normal BALB/3T3 fibroblasts; details: for pIC50: Mus musculus, BALB/3T3, normal cells, 72 h with compound, SRB, n/a = non-active compound, read-out: BALB/3T3 IC50; for IC50: Table 5, BALB/3T3 normal mouse fibroblasts, read-out: IC50 (nM) BALB3T3 normal cells
cancer cells = test: In vitro cytotoxic activity on the panel of cancer cell lines (MTT/SRB), general statements; details: for anti-proliferative effect compared to that of the parent compound: Tables 3.1, 3.2, 4 and 5, parent compound salinomycin; for biological properties (IC50, SI) compared to the corresponding epi compounds: table 5 comparative examples, retained vs inverted C20 configuration
[10] = tested on: MV-4-11 (human biphenotypic leukaemia); test: In vitro cytotoxicity, MTT assay, MV-4-11; details: for IC50: Homo sapiens, MV4-11, read-out: IC50 (nM) MV4-11
[11] = 72 h, read-out: A2780Cis IC50 (nM)

Compound | NCI-H23 SI [1] | PFSK-1 SI [2] | A2780 SI [3] | A2780Cis RI [4] | A2780Cis SI [4] | SI A2780Cis [4] | IC50 [4, 11] [nM] | IC50 ([4]; read-out: IC50 (nM) A2780Cis) [nM] | A375 SI (A375 (human melanoma)) | pIC50 (Hs294T (human melanoma)) | Hs294T SI (Hs294T (human melanoma)) | pIC50 [5] | PLC/PRF/5 SI [5] | pIC50 [6] | SNU-16 SI [6] | pIC50 [7] | KG-1 SI [7] | pIC50 [8] | IC50 [9] [nM] | anti-proliferative effect compared to that of the parent compound (cancer cells) | further results
CC[C@@H](C(=O)[C@@H](C)[C@@H](O)[C@H](C)[C@@H]1O[C@@H]([C@@H](CC)C(=O)O)CC[C@@H]1C)[C@H]1O[C@]2(C=C[C@@H](NC(=O)Nc3ccccc3)[C@]3(CC[C@@](C)([C@H]4CC[C@](O)(CC)[C@H](C)O4)O3)O2)[C@H](C)C[C@@H]1C [FLC-00374-1] | 24.1 | 18.4 | 156.6 | 0.2 | 671.0 | 671.0 | 0.11 | 0.11 | 2.1 | 7.14 | 1.0 | 8.05 | 8.0 | 8.39 | 17.5 | 7.90 | 5.6 | 7.54 | 70.5 | several times more potent compared to that of the parent compound | pIC50 ([1]; Homo sapiens): 8.53; pIC50 ([2]; Homo sapiens): 8.42; pIC50 ([3]; Homo sapiens): 9.35; pIC50 (A375 (human melanoma); Homo sapiens): 7.47; MIA PaCa-2 SI [8]: 2.5; pIC50 [9]: 7.15; biological properties (IC50, SI) compared to the corresponding epi compounds (cancer cells): improved biological properties compared to their counterparts with a configuration conversion
CC[C@@H](C(=O)[C@@H](C)[C@@H](O)[C@H](C)[C@@H]1O[C@@H]([C@@H](CC)C(=O)O)CC[C@@H]1C)[C@H]1O[C@]2(C=C[C@@H](NC(=S)NCCCSC)[C@]3(CC[C@@](C)([C@H]4CC[C@](O)(CC)[C@H](C)O4)O3)O2)[C@H](C)C[C@@H]1C [FLC-00345-1] | 1.5 | 5.6 | 81.2 | 0.8 | 96.6 |  | 0.71 |  | 0.2 | 6.40 | 0.2 | 7.55 | 2.4 | 7.58 | 2.6 | 7.41 | 1.7 | 6.95 |  | several times more potent compared to that of the parent compound | pIC50 ([1]; Homo sapiens): 7.33; pIC50 ([2]; Homo sapiens): 7.91; pIC50 ([3]; Homo sapiens): 9.08; pIC50 (A375 (human melanoma); Homo sapiens): 6.40; MIA PaCa-2 SI [8]: 0.6; pIC50 [9]: 7.17
CC[C@@H](C(=O)[C@@H](C)[C@@H](O)[C@H](C)[C@@H]1O[C@@H]([C@@H](CC)C(=O)O)CC[C@@H]1C)[C@H]1O[C@]2(C=C[C@@H](NC(=O)C(=O)NCc3ccccc3OC)[C@]3(CC[C@@](C)([C@H]4CC[C@](O)(CC)[C@H](C)O4)O3)O2)[C@H](C)C[C@@H]1C [FLC-00491-1•Na] |  |  |  |  |  | 79.2 |  | 5.19 |  |  |  |  |  |  |  |  |  |  | 411 | several times more potent compared to that of the parent compound | SI MV4-11 [10]: 65.3; IC50 [10]: 6.3 nM
CCC(CC)NC(=S)N[C@@H]1C=C[C@]2(O[C@H]([C@@H](CC)C(=O)[C@@H](C)[C@@H](O)[C@H](C)[C@@H]3O[C@@H]([C@@H](CC)C(=O)O)CC[C@@H]3C)[C@@H](C)C[C@H]2C)O[C@@]12CC[C@@](C)([C@H]1CC[C@](O)(CC)[C@H](C)O1)O2 [FLC-00771-1•Na] |  |  |  |  |  | ≈8000 |  | < 0.01 |  |  |  |  |  |  |  |  |  |  | 80 | several times more potent compared to that of the parent compound | SI MV4-11 [10]: ≈8000; IC50 [10]: < 0.01 nM
CC[C@@H](C(=O)[C@@H](C)[C@@H](O)[C@H](C)[C@@H]1O[C@@H]([C@@H](CC)C(=O)O)CC[C@@H]1C)[C@H]1O[C@]2(C=C[C@@H](NC(=O)C3CCC3)[C@]3(CC[C@@](C)([C@H]4CC[C@](O)(CC)[C@H](C)O4)O3)O2)[C@H](C)C[C@@H]1C [FLC-00463-1•Na] |  |  |  |  |  | 266.3 |  | 0.72 |  |  |  |  |  |  |  |  |  |  | 191 | several times more potent compared to that of the parent compound | SI MV4-11 [10]: 96.5; IC50 [10]: 1.98 nM
CCCCCCCCNC(=O)N[C@@H]1C=C[C@]2(O[C@H]([C@@H](CC)C(=O)[C@@H](C)[C@@H](O)[C@H](C)[C@@H]3O[C@@H]([C@@H](CC)C(=O)O)CC[C@@H]3C)[C@@H](C)C[C@H]2C)O[C@@]12CC[C@@](C)([C@H]1CC[C@](O)(CC)[C@H](C)O1)O2 [FLC-00366-1] | 19.8 | 25.3 | 128.0 | 0.2 | 550.8 | 550.8 | 0.21 | 0.21 | 1.7 | 6.67 | 0.5 | 8.25 | 20.4 | 8.06 | 13.3 | 7.39 | 2.8 | 7.35 | 115 |  | pIC50 ([1]; Homo sapiens): 8.24; pIC50 ([2]; Homo sapiens): 8.34; pIC50 ([3]; Homo sapiens): 9.05; pIC50 (A375 (human melanoma); Homo sapiens): 7.16; MIA PaCa-2 SI [8]: 2.5; pIC50 [9]: 6.94; biological properties (IC50, SI) compared to the corresponding epi compounds (cancer cells): improved biological properties compared to their counterparts with a configuration conversion
CC[C@@H](C(=O)[C@@H](C)[C@@H](O)[C@H](C)[C@@H]1O[C@@H]([C@@H](CC)C(=O)O)CC[C@@H]1C)[C@H]1O[C@]2(C=C[C@@H](NC(=O)NC3CCC3)[C@]3(CC[C@@](C)([C@H]4CC[C@](O)(CC)[C@H](C)O4)O3)O2)[C@H](C)C[C@@H]1C [FLC-00341-1 Na] | 0.3 | 1.9 | 59.2 | 0.8 | 73.9 |  | 1.3 |  | 0.3 | 5.79 | 0.1 | 7.26 | 1.8 | 7.57 | 3.5 | 7.34 | 2.1 | 7.26 |  | several times more potent compared to that of the parent compound | pIC50 ([1]; Homo sapiens): 6.50; pIC50 ([2]; Homo sapiens): 7.29; pIC50 ([3]; Homo sapiens): 8.79; pIC50 (A375 (human melanoma); Homo sapiens): 6.53; MIA PaCa-2 SI [8]: 1.7; pIC50 [9]: 7.02
CC[C@@H](C(=O)[C@@H](C)[C@@H](O)[C@H](C)[C@@H]1O[C@@H]([C@@H](CC)C(=O)O)CC[C@@H]1C)[C@H]1O[C@]2(C=C[C@@H](NC(=S)NCc3ccccc3)[C@]3(CC[C@@](C)([C@H]4CC[C@](O)(CC)[C@H](C)O4)O3)O2)[C@H](C)C[C@@H]1C [FLC-00346-1] | 1.1 | 2.7 | 96.4 | 0.2 | 487.1 |  | 0.14 |  | 0.2 | 6.41 | 0.2 | 8.24 | 11.9 | 8.34 | 15.2 | 7.68 | 3.3 | 7.36 |  | several times more potent compared to that of the parent compound | IC50 ([1]; Homo sapiens, NCI-H23, 72 h, read-out: NCI-H23 IC50 (nM)): 60.3 nM; IC50 ([2]; Homo sapiens, PFSK-1, 72 h, read-out: PFSK-1 IC50 (nM)): 25.1 nM; IC50 ([3]; Homo sapiens, A2780, 72 h, read-out: A2780 IC50 (nM)): 0.71 nM; IC50 (A375 (human melanoma); Homo sapiens, A-375, 72 h, read-out: A375 IC50 (nM)): 393 nM; MIA PaCa-2 SI [8]: 1.6; pIC50 [9]: 7.16
CC[C@@H](C(=O)[C@@H](C)[C@@H](O)[C@H](C)[C@@H]1O[C@@H]([C@@H](CC)C(=O)O)CC[C@@H]1C)[C@H]1O[C@]2(C=C[C@@H](NC(=S)NC(C)(C)C)[C@]3(CC[C@@](C)([C@H]4CC[C@](O)(CC)[C@H](C)O4)O3)O2)[C@H](C)C[C@@H]1C [FLC-00467-1•Na] |  |  |  |  |  | ≈853700 |  |  |  |  |  |  |  |  |  |  |  |  | 85.4 | several times more potent compared to that of the parent compound | SI MV4-11 [10]: ≈853700
